Measured values: patent publication US7598271B1, “Crystalline paroxetine methane sulfonate” (Noven Therapeutics, LLC, priority 1997, dated 2009)
Counter-ions that a name gives are not always drawn. Like-named read-outs stand apart in the source and are kept apart here.

Assays:
[1] = Solubility of paroxetine salts in water; format: physicochemical; conditions: for solubility: water
[2] = background statement; cited from earlier work
[3] = causes undesired colouration during classical wet tabletting; cited from earlier work
[4] = Hygroscopicity test of paroxetine salts (40° C., 75% rel. hum); format: physicochemical
From the text: (§1) In the following tables 2 and 3, examples of results of hygroscopicity tests and stability tests (in comparison with known salts of paroxetine) are presented.

[5] = Stability of paroxetine salts by HPLC (total amount of degradation); format: physicochemical
From the text: as §1

[6] = background statement on known salts; cited from earlier work

Question: Which Solubility in water ([1]; 20° C., hydrochloride) does the source give for `Fc1ccc([C@@H]2CCNC[C@H]2COc2ccc3c(c2)OCO3)cc1` [hydrochloride anhydrate, paroxetine hydrochloride, reference compound] here?
Answer: 8.2 mg/mL

Question: And the Solubility in water ([1]; 50° C., hydrochloride)?
Answer: 24.2 mg/mL

Question: For `Fc1ccc([C@@H]2CCNC[C@H]2COc2ccc3c(c2)OCO3)cc1` [hydrochloride hemihydrate, paroxetine hydrochloride hemihydrate, reference compound], which solubility ([1]; 20 °C) is on record?
Answer: 4.9 mg/mL

Question: What about the solubility ([1]; 50 °C) of the same compound?
Answer: 12.6 mg/mL

Question: What about the “solubility in water (in words)” value [2] of the same compound?
Answer: only limited solubility in water

Question: And the “photostability (in words)” value [3]?
Answer: limited photostability

Question: With `Fc1ccc([C@@H]2CCNC[C@H]2COc2ccc3c(c2)OCO3)cc1` [hydrochloride, paroxetine hydrochloride, reference compound] as the compound, how does the “water content (in %) at t = 4 weeks” value [4] read?
Answer: +2.5%

Question: Which Solubility in water ([1]; 20° C.) does the source give for `CS(=O)(=O)O.Fc1ccc([C@@H]2CCNC[C@H]2COc2ccc3c(c2)OCO3)cc1` [methane sulfonate, Paroxetine Methane Sulfonate] here?
Answer: >1000/10 min mg/ml

Question: What about the Solubility in water ([1]; 50° C.) of the same compound?
Answer: 1300 mg/mL

Question: What about the “total amount of degradation by HPLC” value ([5]; 20° C., time not given) of the same compound?
Answer: not observed

Question: And the “total amount of degradation by HPLC” value ([5]; 80° C., 3 months)?
Answer: <0.2%, 3 months

Question: What about the “Solubility in 2-Propanol” value (20° C.) of the same compound?
Answer: 7 mg/mL

Question: What about the “Solubility in 2-Propanol” value (82° C.) of the same compound?
Answer: 330 mg/mL

Question: And the “Solubility in Acetone” value (20° C.)?
Answer: 5 mg/mL

Question: And the “Solubility in Acetone” value (56° C.)?
Answer: 37 mg/mL

Question: And the “Solubility in Ethanol” value (20° C.)?
Answer: 36 mg/mL

Question: And the “Solubility in Ethanol” value (78° C.)?
Answer: 250 mg/mL

Question: And the “Solubility in Ethyl acetate” value (20° C.)?
Answer: 2 mg/mL

Question: What about the “Solubility in Ethyl acetate” value (77° C.) of the same compound?
Answer: 25 mg/mL

Question: What about the “Solubility in n-Hexane” value (20° C.) of the same compound?
Answer: <0.05 mg/mL

Question: What about the “Solubility in n-Hexane” value (69° C.) of the same compound?
Answer: 0.05 mg/mL

Question: What about the “water content (in %) at t = 0” value [4] of the same compound?
Answer: 0.35%

Question: What about the “water content (in %) at t = 4 weeks” value [4] of the same compound?
Answer: +0.04%

Question: Which Solubility in water ([1]; 20° C.) does the source give for `Cc1ccc(S(=O)(=O)O)cc1.Fc1ccc([C@@H]2CCNC[C@H]2COc2ccc3c(c2)OCO3)cc1` [p-toluene sulfonate, Paroxetine p-Toluene Sulfonate] here?
Answer: >1000 mg/mL

Question: And the Solubility in water ([1]; 50° C.)?
Answer: >1000 mg/mL

Question: What about the “total amount of degradation by HPLC” value ([5]; 20° C., time not given) of the same compound?
Answer: not observed

Question: And the “total amount of degradation by HPLC” value ([5]; 80° C., 3 months)?
Answer: <0.2%, 3 months

Question: And the “Solubility in 2-Propanol” value (20° C.)?
Answer: 14 mg/mL

Question: And the “Solubility in 2-Propanol” value (82° C.)?
Answer: >500 mg/mL

Question: What about the “Solubility in Acetone” value (20° C.) of the same compound?
Answer: 16 mg/mL

Question: And the “Solubility in Acetone” value (56° C.)?
Answer: 125 mg/mL

Question: And the “Solubility in Ethanol” value (20° C.)?
Answer: 50 mg/mL

Question: And the “Solubility in Ethanol” value (78° C.)?
Answer: >500 mg/mL

Question: And the “Solubility in Ethyl acetate” value (20° C.)?
Answer: 22 mg/mL

Question: What about the “Solubility in Ethyl acetate” value (77° C.) of the same compound?
Answer: >500 mg/mL

Question: And the “Solubility in n-Hexane” value (20° C.)?
Answer: <0.05 mg/mL

Question: What about the “Solubility in n-Hexane” value (69° C.) of the same compound?
Answer: <0.05 mg/mL

Question: What about the “water content (in %) at t = 0” value [4] of the same compound?
Answer: 0.70%

Question: What about the “water content (in %) at t = 4 weeks” value [4] of the same compound?
Answer: <0.02%

Question: With Paroxetine Acetate as the compound, how does the “stability (in words)” value [6] read?
Answer: unstable

Question: Which results are given for Paroxetine Maleate [reference compound]?
Answer: total amount of degradation by HPLC ([5]; 20° C., 12 months): 0.2%, 12 months; total amount of degradation by HPLC ([5]; 80° C., 5 days): >50%, 5 days; stability (in words) [6]: unstable
